Data on seven molecules can be found in PMC4669722, “Antitumour potential of BPT: a dual inhibitor of cdk4 and tubulin polymerization” (Cell Death & Disease, 2015).

Starred links: 1 amine or outer side, 2 acyl side, 3 side chain; linkers in the order of their positions; H or OH if unused. Positions of bridges follow the written chain, without caps; N, C: chain ends. Non-standard residues stand in square brackets, D forms with d. Residues, ends and D or L forms follow the SMILES beside them. Chains are numbered I, II in the order given. Actinocin(9to1) = Cc1c2oc3c(C)ccc(C(=O)[*:1])c3nc-2c(C(=O)[*:2])c(N)c1=O; NMeV = CN[C@H](C(=O)O)C(C)C; Sar = CNCC(=O)O

Experiment [1] has as its system NCI-H1299 (NSCLC; p53 null, pRb+). The experiment can be described thus: Cell proliferation (MTT) assay, NCI-H1299. The format is cell-based. The following applies: Homo sapiens, 48 h, read-out: IC50 cell growth inhibition, NCI-H1299. Here is the method:
(§1) All 10 human cancer cell lines were maintained at 37 °C in 5% CO2 in RPMI-1640 medium, supplemented with 10% foetal calf serum and 100 μg/ml normocin. The 10 cancer cell lines used for screening were all obtained from ATCC (Manassas, VA, USA); they were the NSCLC (a form of cancer that is resistant to chemotherapy) lines: NCI-H460 (pRb^+, p53^+), A549 (pRb^+, p53^+), Calu-1 (pRb^+, p53-null), NCI-H1299 (pRb^+, p53-null), NCI-H358 (pRb-null, p53-null); the colon cancer line LS174T (pRb^+, p53^+); the prostate cancer line PC-3 (pRb^+, p53-null); the pancreatic cancer line MiaPaca (pRb^+, p53-mutant). The genotypes within brackets indicate the status of the tumour suppressor proteins pRb and p53. The mouse embryonic normal hepatic cell line (BNL CL2) and its SV40 large T-antigen-transformed counterpart cell line (BNL SV A.8) were also purchased from ATCC. The large T-antigen inactivates the tumour suppressor proteins p53 and pRb. The detailed procedure of cell proliferation (MTT) assay and IC50 determination was described previously.[32]

Experiment [2] addresses Cdk1-cyclin B1 (Homo sapiens, UniProt P06493). The experiment can be described thus: In vitro kinase assay, Cdk1-cyclin B1 (in-house). It is filed as biochemical. The following applies: three independent experiments; read-out: IC50 (mean±S.D.), Cdk1-cyclin B1. Here is the method: (§2) The in vitro kinase assays for testing against Cdk4-cyclin D1, Cdk2-cyclin A, Cdk1-cyclin B1 and Cdk9-cyclin T1 were performed in-house. The methodology and results have been reported previously.[20], [30], [31], [32], [45] The kinase profiling for 58 representative kinases was carrried out commercially at Millipore Bioscience Division, Livingston, UK.

In experiment [3] the test system is BNL CL2 (mouse normal hepatic cells). The experiment can be described thus: Cell proliferation (MTT) assay, BNL CL2. The following applies: Mus musculus, BNL CL.2; 48 h, MTT; read-out: IC50 cell growth inhibition, BNL CL2. It is filed as cell-based. Here is the method: as §1
Experiment [4] deals with NCI-H358 (NSCLC; p53 null, pRb null). In words: Cell proliferation (MTT) assay, NCI-H358. It is filed as cell-based. The settings on record: Homo sapiens, 48 h, read-out: IC50 cell growth inhibition, NCI-H358. Here is the method: as §1
Experiment [5] relates to Calu-1 (NSCLC; p53 null, pRb+). In words: Cell proliferation (MTT) assay, Calu-1. The format is cell-based, human. The settings on record: Homo sapiens, Calu-1; 48 h, MTT; read-out: IC50 cell growth inhibition, Calu-1. Here is the method:
as §1

In experiment [6] the target is Cdk9-cyclin T1 (Homo sapiens, UniProt P50750). The experiment can be described thus: In vitro kinase assay, Cdk9-cyclin T1 (in-house). It is filed as biochemical. The settings on record: three independent experiments; read-out: IC50 (mean±S.D.), Cdk9-cyclin T1. Here is the method:
as §2

Experiment [7] relates to MiaPaCa (pancreatic; p53His273mut, pRb+). In words: Cell proliferation (MTT) assay, MiaPaCa. It is filed as cell-based. The following applies: Homo sapiens, MIA PaCa-2, 48 h, read-out: IC50 cell growth inhibition, MiaPaCa. Here is the method:
as §1

Experiment [8] has as its target Cdk2-cyclin A (Homo sapiens, UniProt P24941). In words: In vitro kinase assay, Cdk2-cyclin A (in-house). It is filed as biochemical. The following applies: three independent experiments; read-out: IC50 (mean±S.D.), Cdk2-cyclin A. Here is the method: as §2
Experiment [9] has as its target Cdk4-cyclin D1 (Homo sapiens, UniProt P11802). In words: In vitro kinase assay, Cdk4-cyclin D1 (in-house). The format is biochemical. The settings on record: three independent experiments; read-out: IC50 (mean±S.D.), Cdk4-cyclin D1. Here is the method:
as §2

Experiment [10] concerns A549 (NSCLC; p53+, pRb+). The experiment can be described thus: Cell proliferation (MTT) assay, A549. It is filed as cell-based. The settings on record: Homo sapiens, 48 h, read-out: IC50 cell growth inhibition, A549. Here is the method: as §1
Experiment [11] deals with pBluescript plasmid DNA. The experiment can be described thus: EtBr displacement assay. The format is binding. The following applies: 1.3 μM EtBr, pH 7.4. Here is the method:
The assays were performed in a 96-well plate with clear bottom (Costar, Washington, DC, USA). The assay involved the addition of 10 μl of 10 × concentrated stock solution of compounds (dissolved in DMSO and further diluted in EtBr displacement assay buffer) to 90 μl of reaction mixture containing 6 μg of purified pBlueScript DNA and 1.3 μM EtBr in EtBr displacement assay buffer with final pH 7.4. Equivalent amounts of DMSO were added to the vehicle controls. In addition to control samples (DNA+EtBr), test samples (DNA+EtBr+test compounds), blank 1 (EtBr only), blank 2 (DNA only), wells containing DNA and compound were also prepared to test any change in the background fluorescence readings. The reduction in relative fluorescence counts was monitored ([…]) and recorded after 1 min equilibration time. Fascaplysin and actinomycin D, which are known to intercalate d-s DNA, were used as standard compounds in assay. The mean control and test readings were corrected by subtracting blank readings. The percentage fluorescence in the test samples in reaction with control samples was calculated by using following formula: […]

Experiment [12] relates to LS174T (colorectal carcinoma; p53+, pRb+). The experiment can be described thus: Cell proliferation (MTT) assay, LS174T. It is filed as cell-based. The settings on record: Homo sapiens, 48 h, read-out: IC50 cell growth inhibition, LS174T. Here is the method: as §1
Experiment [13] deals with PC-3 (prostate; p53 null, pRb+). The experiment can be described thus: Cell proliferation (MTT) assay, PC-3. It is filed as cell-based. The settings on record: Homo sapiens, 48 h, read-out: IC50 cell growth inhibition, PC-3. Here is the method: as §1
The subject of experiment [14] is NCI-H460 (NSCLC; p53+, pRb+). The experiment can be described thus: Cell proliferation (MTT) assay, NCI-H460. The format is cell-based. The settings on record: Homo sapiens, 48 h, read-out: IC50 cell growth inhibition, NCI-H460. Here is the method: as §1
Experiment [15] relates to BNL SV A.8 (mouse hepatic; SV40-mediated transformed cells). The experiment can be described thus: Cell proliferation (MTT) assay, BNL SV A.8. It is filed as cell-based. The settings on record: Mus musculus; 48 h, MTT; read-out: IC50 cell growth inhibition, BNL SV A.8. Here is the method: as §1
Experiment [16] deals with Calu-1 cells. The arrangement: method as in PMID 16493461. The following applies: cited from earlier work.
Experiment [17] relates to NCI-H358 cells. In words: Flow cytometric cell cycle analysis, synchronized NCI-H358. The format is cell-based, human. The following applies: NCI-H358, hydroxyurea 250 μM, 18 h. Here is the method: The untreated (control) and treated (with test compounds) cells were harvested by trypsinization, washed once with PBS and then fixed in 70% chilled (−20 °C) ethanol for minimum 1 h. After the fixation step, cells were centrifuged for 5 min at 3000 × g at room temperature, and the pellet was suspended in PBS containing 50 μg/ml propidium iodide (Sigma-Aldrich, Dorset, UK; cat. no. P-4170) and 0.5 mg/ml DNase-free ribonuclease (Sigma-Aldrich; cat. no. R-5503). The cells were stained for 1 h in the dark at 4 °C. Cell cycle analysis was performed on the Beckman Coulter (Epics Altra) fluorescence-activated cell sorter (Beckman Coulter UK Ltd, Buckinghamshire, UK). To gate all the events that represent single cells, and not cell doublets or cell clumps, the following analyses were performed on the samples. Cytograms of propidium iodide fluorescence peak signal versus integrated fluorescence or the linear signal were plotted. All data points on the straight line were isolated in a single gate and the gated data was further used for plotting a histogram that represents a complete cell cycle. The total number of events was not allowed to exceed 200 events per s. Data acquisition was stopped after a minimum of 10 000 events had been collected.
On the technique in general: In flow cytometry, cells or beads pass a laser one at a time.

Experiment [18] deals with tubulin. The experiment can be described thus: Cell-free tubulin polymerization assay in vitro. It is filed as biochemical. The settings on record: 10 μM; control 19 mOD/min. Here is the method: The purified tubulin was obtained commercially (Cytoskeleton Inc., Denver, CO, USA) and the polymerization assays were carried out according to the method described previously.[36] […] The resulting polymerization curves are representative of the three phases of microtubule polymerization, namely nucleation, growth and steady-state equilibrium. Paclitaxel and nocodazole were used in the assay as a known enhancer and inhibitor of tubulin polymerization, respectively. The ability of BPT to inhibit tubulin polymerization in vitro was determined according to the manufacturer's instructions. Briefly, tubulin protein (3 mg/ml) was polymerized in GTP buffer (80 mM PIPES, pH 6.9, 2 mM MgCl2, 0.5 mM EGTA, 10.2% glycerol and 1 mM GTP) in the presence of a range of BPT concentrations at 37 °C in a temperature-regulated Biotech spectrophotometer (Potton, Bedfordshire, UK). The absorbance (at 340 nm) kinetics of 61 cycles for each sample was studied and the readings were recorded at an interval of 1 min.

Chain of Cdk1-cyclin B1 (P06493 whole entry): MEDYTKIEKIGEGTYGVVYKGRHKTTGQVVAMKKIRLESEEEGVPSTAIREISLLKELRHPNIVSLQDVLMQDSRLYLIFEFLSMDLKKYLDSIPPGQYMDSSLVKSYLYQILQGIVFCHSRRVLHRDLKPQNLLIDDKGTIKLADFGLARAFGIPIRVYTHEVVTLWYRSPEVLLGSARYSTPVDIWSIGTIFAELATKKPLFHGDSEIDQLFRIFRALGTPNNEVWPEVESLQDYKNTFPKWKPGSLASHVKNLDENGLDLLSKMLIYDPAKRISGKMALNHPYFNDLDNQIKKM
Chain of Cdk1-cyclin B1 (P14635 whole entry partner): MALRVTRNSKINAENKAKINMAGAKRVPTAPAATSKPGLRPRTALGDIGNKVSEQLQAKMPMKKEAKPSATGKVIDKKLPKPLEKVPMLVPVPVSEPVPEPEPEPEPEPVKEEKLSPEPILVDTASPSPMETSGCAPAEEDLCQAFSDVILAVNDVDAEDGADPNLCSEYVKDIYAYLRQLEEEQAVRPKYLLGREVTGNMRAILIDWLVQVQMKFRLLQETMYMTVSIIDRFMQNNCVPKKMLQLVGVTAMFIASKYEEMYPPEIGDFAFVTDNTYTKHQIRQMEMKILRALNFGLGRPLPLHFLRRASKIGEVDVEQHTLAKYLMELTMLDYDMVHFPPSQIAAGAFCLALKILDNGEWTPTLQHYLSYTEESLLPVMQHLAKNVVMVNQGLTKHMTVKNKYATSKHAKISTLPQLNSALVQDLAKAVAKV
Chain of Cdk9-cyclin T1 (P50750 whole entry): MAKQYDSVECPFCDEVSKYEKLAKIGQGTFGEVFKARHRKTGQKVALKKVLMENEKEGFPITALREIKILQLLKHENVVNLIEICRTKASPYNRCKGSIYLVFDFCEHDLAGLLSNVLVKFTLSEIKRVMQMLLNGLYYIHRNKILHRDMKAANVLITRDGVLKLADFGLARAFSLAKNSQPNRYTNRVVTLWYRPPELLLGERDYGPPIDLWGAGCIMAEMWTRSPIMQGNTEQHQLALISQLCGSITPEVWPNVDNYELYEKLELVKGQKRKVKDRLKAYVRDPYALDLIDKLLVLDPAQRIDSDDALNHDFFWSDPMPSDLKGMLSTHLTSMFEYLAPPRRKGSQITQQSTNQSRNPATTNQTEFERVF
Chain of Cdk9-cyclin T1 (O60563 whole entry partner): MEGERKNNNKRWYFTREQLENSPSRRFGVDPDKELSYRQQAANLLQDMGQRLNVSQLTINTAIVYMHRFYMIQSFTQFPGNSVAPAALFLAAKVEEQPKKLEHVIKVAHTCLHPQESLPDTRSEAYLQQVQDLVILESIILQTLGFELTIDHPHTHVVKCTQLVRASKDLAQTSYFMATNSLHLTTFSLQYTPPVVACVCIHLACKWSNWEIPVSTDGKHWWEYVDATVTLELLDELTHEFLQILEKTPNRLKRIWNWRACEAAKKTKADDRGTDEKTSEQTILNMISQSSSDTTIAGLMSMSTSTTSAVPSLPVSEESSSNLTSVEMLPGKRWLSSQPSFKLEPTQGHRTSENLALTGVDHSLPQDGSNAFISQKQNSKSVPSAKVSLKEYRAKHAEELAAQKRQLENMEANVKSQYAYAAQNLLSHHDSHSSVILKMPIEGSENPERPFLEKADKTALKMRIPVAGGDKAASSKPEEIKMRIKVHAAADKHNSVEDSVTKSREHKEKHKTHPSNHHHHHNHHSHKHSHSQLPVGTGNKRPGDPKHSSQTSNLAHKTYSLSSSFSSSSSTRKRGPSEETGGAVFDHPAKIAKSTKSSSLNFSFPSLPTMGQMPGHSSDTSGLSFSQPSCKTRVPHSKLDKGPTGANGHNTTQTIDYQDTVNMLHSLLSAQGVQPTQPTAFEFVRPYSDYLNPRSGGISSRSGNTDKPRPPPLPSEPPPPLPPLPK
Chain of Cdk4-cyclin D1 (P11802 whole entry): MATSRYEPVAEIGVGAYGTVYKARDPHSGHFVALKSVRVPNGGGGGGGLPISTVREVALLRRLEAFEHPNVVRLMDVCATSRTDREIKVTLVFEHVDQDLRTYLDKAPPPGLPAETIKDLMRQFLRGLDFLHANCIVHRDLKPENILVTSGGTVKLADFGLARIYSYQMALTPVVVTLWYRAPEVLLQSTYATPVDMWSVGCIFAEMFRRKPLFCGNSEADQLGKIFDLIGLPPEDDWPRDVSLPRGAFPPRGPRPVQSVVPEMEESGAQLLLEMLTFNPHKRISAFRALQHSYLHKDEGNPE
Chain of Cdk4-cyclin D1 (P24385 whole entry partner): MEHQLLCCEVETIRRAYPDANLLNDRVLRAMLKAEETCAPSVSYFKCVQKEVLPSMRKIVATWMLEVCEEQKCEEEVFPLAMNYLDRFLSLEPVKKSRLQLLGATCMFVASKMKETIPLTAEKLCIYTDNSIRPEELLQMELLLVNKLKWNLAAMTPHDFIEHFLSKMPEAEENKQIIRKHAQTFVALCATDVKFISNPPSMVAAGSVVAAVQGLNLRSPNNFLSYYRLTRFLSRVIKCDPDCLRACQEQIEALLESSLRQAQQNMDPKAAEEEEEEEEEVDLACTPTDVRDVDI

One may read the IC50 as the concentration needed to halve the response being measured. Take `COc1ccccc1C(=O)N1CCc2c([nH]c3ccccc23)C1` [CA198]: the IC50 is 35 µM in experiment [1]; above 500 µM in experiment [2]; 37 µM in experiment [3]; 28 µM in experiment [4]; 92 µM in experiment [5]; above 1000 µM in experiment [6]. Also, the IC50 in experiment [7] came to 43 µM; in experiment [8] it was 861 ± 29 µM; in experiment [9], 25 ± 5.5 µM; in [10], 46 µM; in experiment [12], 33 µM; in experiment [13], 42 µM. Also, the IC50 in experiment [14] was 29 µM; in experiment [15], 40 µM. In addition, the “EtBr displacement from DNA” value in [11] was “No EtBr displacement up to 100 μM”.
Take `COc1cccc(C(=O)N2CCc3c([nH]c4ccccc34)C2)c1` [CA199]: the IC50 is 4.5 µM in experiment [1]; above 500 µM in experiment [2]; 6.5 µM in experiment [3]; 3.5 µM in experiment [4]; 47 µM in experiment [5]; above 1000 µM in experiment [6]. Moreover, the IC50 in experiment [7] was determined as 8.5 µM; in experiment [8] it was 766 ± 33 µM; in experiment [9], 24.4 ± 4 µM; in experiment [10], 8 µM; in experiment [12] it was 7.1 µM; in experiment [13], 13.1 µM. Further, the IC50 in experiment [14] stood at 6.2 µM; in experiment [15] it was 8.2 µM. In addition, in experiment [16], the “phase of cell cycle block in Calu-1 cells” value was “blocks only at the G0/G1 phase”. For the same molecule, in [11], the “EtBr displacement from DNA” value is given as “No EtBr displacement up to 100 μM”.
As for `CC(C)(C)c1ccc(C(=O)N2CCc3c([nH]c4ccccc34)C2)cc1` [CA211], the IC50 in [1] was 30 µM; in experiment [2] it was above 500 µM; in [3], 27 µM; in experiment [4], 25 µM; in experiment [5], 54 µM; in experiment [6] it was above 1000 µM. In addition, the IC50 worked out at 29 µM in experiment [7]; 720 ± 24 µM in [8]; 44 ± 3 µM in experiment [9]; 31 µM in [10]; 29 µM in experiment [12]; 32 µM in experiment [13]. The IC50 in [14] turned out to be 22 µM; in [15], 35 µM. Also, the “EtBr displacement from DNA” value in experiment [11] is “No EtBr displacement up to 100 μM”.
Take `NC(=O)NO` [Hydroxyurea, hydroxyurea, reference compound]: the “cells in G0/G1” value in experiment [17] worked out at 77%.
Take `COC(=O)Nc1nc2ccc(C(=O)c3cccs3)cc2[nH]1` [Nocodazole, nocodazole, reference compound]: in experiment [18], the “Vmax of tubulin polymerization” value is reported as 4.5 mOD/min.
Consider `Cc1c2oc3c(C)ccc(C(=O)N[C@@H]4C(=O)N[C@H](C(C)C)C(=O)N5CCC[C@H]5C(=O)N(C)CC(=O)N(C)[C@@H](C(C)C)C(=O)O[C@@H]4C)c3nc-2c(C(=O)N[C@@H]2C(=O)N[C@H](C(C)C)C(=O)N3CCC[C@H]3C(=O)N(C)CC(=O)N(C)[C@@H](C(C)C)C(=O)O[C@@H]2C)c(N)c1=O` [actinomycin D, reference compound] (I: T[dV]P[Sar][NMeV] / II: T[dV]P[Sar][NMeV]; ester I:1-I:C, II:1-II:C; linker I:N-II:N via Actinocin(9to1)), for which the “EtBr displacement from DNA” value in experiment [11] is on record as “readily dislodges the bound EtBr”.
On to `CC(=O)O[C@H]1C(=O)[C@@]2(C)[C@H]([C@H](OC(=O)c3ccccc3)[C@]3(O)C[C@H](OC(=O)[C@H](O)[C@@H](NC(=O)c4ccccc4)c4ccccc4)C(C)=C1C3(C)C)[C@]1(OC(C)=O)CO[C@@H]1C[C@@H]2O` [paclitaxel, reference compound], for which, in [18], the “Vmax of tubulin polymerization” value is reported as 61 mOD/min.
